Measured values reported in patent US11896010B2, “Uracil compound and use thereof” (Sumitomo Chemical Company, Limited, priority 2018, dated 2024).

Assays:
Type in all cases: in vivo
[1] = tested on: Amaranthus retroflexus; assay: Test Example 1: post-emergence foliage spray pot test in greenhouse, weed control efficacy; conditions: for weed control efficacy score (0 to 100), Amaranthus retroflexus: foliar spray 204 L/ha on plants grown 15 days, evaluated after 11 days, 0 = same as untreated, 100 = completely dead; for weed control efficacies against Amaranthus retroflexus (in words): summary of the test at 80 and 40 gai/ha
Method: (§1) Next, weed control efficacies of the Compound A and safety (phytotoxicity) of the Compound A against a useful plant are shown by a Test Example.
(§2) Here the “untreated group” represents a group where the same treatment procedure as that of the treated group except not using the Compound A is done.
(§3) A plastic pot was filled with soil, thereto Amaranthus retroflexus, Ipomoea hederacea, and corn were seeded, and they were grown in a greenhouse for 15 days. Separately, a prescribed amount of a formulation prepared according to the process described in the Formulation Example 1 was diluted with water comprising 1% of Agridex (registered trademark) to obtain a diluent. Said diluent was homogeneously sprayed from above of said plants in a ratio of 204 L/ha such that the applied amount of the Compound A was 80 gai/ha or 40 gai/ha. Then, said plants were grown in a greenhouse for 11 days and evaluated according to the above criteria.
(§4) The Compound B was used instead of the Compound A to carry out the same test as the Test Example 1.

[2] = tested on: Ipomoea hederacea; assay: as above; conditions: for weed control efficacy score (0 to 100), Ipomoea hederacea: foliar spray 204 L/ha on plants grown 15 days, evaluated after 11 days, 0 = same as untreated, 100 = completely dead; for weed control efficacies against Ipomoea hederacea (in words): summary of the test at 80 and 40 gai/ha
Method: as §1, §2, §3, §4

[3] = tested on: corn; assay: Test Example 1: post-emergence foliage spray pot test in greenhouse, safety (phytotoxicity) against a useful plant; conditions: for phytotoxicity score (0 to 100), corn: foliar spray 204 L/ha on plants grown 15 days, evaluated after 11 days, 0 = same as untreated, 100 = completely dead
Method: as §1, §2, §3, §4

CCOC(=O)COc1nc(-n2c(=O)cc(C(F)(F)F)n(C)c2=O)ccc1Oc1cc(-n2c(=O)cc(C(F)(F)F)n(C)c2=O)c(F)cc1Cl [Compound A]
weed control efficacy score (0 to 100), Amaranthus retroflexus ([1]; applied amount 40 gai/ha): 100
weed control efficacy score (0 to 100), Amaranthus retroflexus ([1]; applied amount 80 gai/ha): 100
weed control efficacies against Amaranthus retroflexus (in words) [1]: high weed control efficacies
weed control efficacy score (0 to 100), Ipomoea hederacea ([2]; applied amount 40 gai/ha): 95
weed control efficacy score (0 to 100), Ipomoea hederacea ([2]; applied amount 80 gai/ha): 100
weed control efficacies against Ipomoea hederacea (in words) [2]: high weed control efficacies
phytotoxicity against corn (in words) ([3]; in vivo): low phytotoxicity

CCOC(=O)COc1ncccc1Oc1cc(-n2c(=O)cc(C(F)(F)F)n(C)c2=O)c(F)cc1Cl [Compound B]
weed control efficacy score (0 to 100), Amaranthus retroflexus ([1]; applied amount 40 gai/ha): 100
weed control efficacy score (0 to 100), Amaranthus retroflexus ([1]; applied amount 80 gai/ha): 100
weed control efficacies against Amaranthus retroflexus (in words) [1]: high weed control efficacies
weed control efficacy score (0 to 100), Ipomoea hederacea ([2]; applied amount 40 gai/ha): 100
weed control efficacy score (0 to 100), Ipomoea hederacea ([2]; applied amount 80 gai/ha): 100
weed control efficacies against Ipomoea hederacea (in words) [2]: high weed control efficacies
phytotoxicity score (0 to 100), corn ([3]; applied amount 40 gai/ha): 100
phytotoxicity score (0 to 100), corn ([3]; applied amount 80 gai/ha): 100
phytotoxicity against corn (in words) ([3]; summary of the test at 80 and 40 gai/ha): high phytotoxicity
